4 molecules from ChEMBL document CHEMBL5543156, “Selective Elimination of Senescent Cancer Cells by Galacto-Modified PROTACs” (J Med Chem, 2024) can be followed below.

As usually defined, the IC50 is the midpoint of a concentration-inhibition curve. The term DC50 denotes the concentration at which degradation of the target reaches its halfway point. High values mean degradation only at high concentration, low ones degradation at low concentration.

Data set [1] has as its target T1, NPM/ALK (Nucleophosmin/ALK tyrosine kinase receptor) (Homo sapiens) (UniProt Q9UM73+P06748). Description: Induction of NPM-ALK degradation in human normal (non-senescent) KARPAS-299 cells at 1 uM incubated for 16 hrs by Western blot analysis. It counts as cell-based. In general terms: A western blot detects proteins with antibodies after separation by electrophoresis.

The target in data set [2] is T1, NPM/ALK (Nucleophosmin/ALK tyrosine kinase receptor) (Homo sapiens). Description: Induction of NPM-ALK degradation in human senescent KARPAS-299 cells at 1 uM incubated for 16 hrs by Western blot analysis. It counts as cell-based.
Data set [3] concerns KARPAS-299. Description: Antiproliferative activity against human normal (non-senescent) KARPAS-299 cells assessed as reduction in cell viability incubated for 72 hrs by CCK-8 assay. It counts as functional, cell-based. To be noted: KARPAS-299, 72 h. In general terms: Tetrazolium dyes change colour on reduction, which living cells bring about.
The test system of data set [4] is KARPAS-299. Briefly: Antiproliferative activity against human senescent KARPAS-299 cells assessed as reduction in cell viability incubated for 72 hrs by CCK-8 assay. It counts as functional, cell-based. The note with it: KARPAS-299, 72 h.
The test system of data set [5] is KARPAS-299. Description: Senolytic index, ratio of IC50 for antiproliferative activity against human normal (non-senescent) KARPAS-299 cells assessed as reduction in cell viability to IC50 for antiproliferative activity against human senescent KARPAS-299 cells assessed as reduction in cell viability. Format: functional.
Data set [6] in a line: Stability of the compound in fetal bovine serum incubated for 24 hrs by Real-tie ultrafast liquid chromatography analysis. It counts as ADME, cell-free, Bos taurus. To be noted: cattle.
Data set [7] can be described thus: Stability of the compound assessed as porcine liver esterase-mediated hydrolysis measured at 16 hrs by Real-time ultrafast liquid chromatography analysis. The note with it: pig, isolated protein. It counts as ADME, Sus scrofa.
Data set [8] concerns the target T2, Bromodomain-containing protein 4 (Homo sapiens, UniProt O60885). Briefly: Induction of BRD4 degradation in etoposide-induced human senescent A549 cells pretreated with etoposide for 3 days followed by compound administration and measured after 15 mins by SA-beta-Gal staining assay. Format: cell-based.
For data set [9], the target named is T2, Bromodomain-containing protein 4. Description: Induction of BRD4 degradation in etoposide-induced human senescent A549 cells at 100 nM pretreated with etoposide for 3 days followed by compound administration and measured after 15 mins by SA-beta-Gal staining assay. Format: cell-based.
The target is the same in data set [10]. Briefly: Induction of BRD4 degradation in etoposide-induced human senescent A549 cells incubated for 16 hrs by Western blot analysis. It counts as cell-based.
For data set [11] the target is unchanged. Description: Induction of BRD4 degradation in human HeLa cells by SA-beta-Gal staining assay. It counts as cell-based.
The target is the same in data set [12]. Briefly: Induction of BRD4 degradation in human U87 cells by SA-beta-Gal staining assay. It counts as cell-based.
The target is the same in data set [13]. Description: Induction of BRD4 degradation in etoposide-induced human senescent HeLa cells by SA-beta-Gal staining assay. Format: cell-based.
Data set [14] has the same target. Description: Induction of BRD4 degradation in etoposide-induced human senescent U87 cells by SA-beta-Gal staining assay. It counts as cell-based.
Data set [15] shares this target. Description: Induction of BRD4 degradation in human A549 cells at 50 nM incubated for 16 hrs in presence of MG-132 by Western blot analysis. It counts as cell-based.
Data set [16] concerns A549. Description: Antiproliferative activity against human normal (non-senescent) A549 cells assessed as reduction in cell viability incubated for 72 hrs by CCK-8 assay. The note with it: A549, 72 h. It counts as functional, cell-based.
For data set [17], the system named is A549. Briefly: Antiproliferative activity against human senescent A549 cells assessed as reduction in cell viability incubated for 72 hrs by CCK-8 assay. Format: functional, cell-based. To be noted: A549, 72 h.
Data set [18] deals with A549. Description: Senolytic index, ratio of IC50 for antiproliferative activity against human normal (non-senescent) A549 cells assessed as reduction in cell viability to IC50 for antiproliferative activity against human senescent A549 cells assessed as reduction in cell viability. It counts as functional.
Data set [19] relates to A549. Briefly: Induction of apoptosis in human normal (non-senescent) A549 cells assessed as viable cells at 1 uM incubated for 24 hrs by FITC/PI staining based flow cytometry analysis (reference value: 94.6%). Format: functional. The note with it: read-out: Activity. A general note: In flow cytometry, cells or beads pass a laser one at a time.
Data set [20] has as its system A549. Description: Induction of apoptosis in human normal (non-senescent) A549 cells assessed as early apoptotic cells at 1 uM incubated for 24 hrs by FITC/PI staining based flow cytometry analysis (reference value: 3.14%). Format: functional.
Data set [21] relates to A549. Briefly: Induction of apoptosis in human normal (non-senescent) A549 cells assessed as late apoptotic cells at 1 uM incubated for 24 hrs by FITC/PI staining based flow cytometry analysis (reference value: 1.97%). It counts as functional.
For data set [22], the system named is A549. Description: Induction of apoptosis in human normal (non-senescent) A549 cells assessed as necrotic cells at 1 uM incubated for 24 hrs by FITC/PI staining based flow cytometry analysis (reference value: 0.29%). Format: functional.
The test system of data set [23] is A549. Description: Induction of apoptosis in human senescent A549 cells assessed as viable cells at 1 uM incubated for 24 hrs by FITC/PI staining based flow cytometry analysis (reference value: 86.9%). It counts as functional. The note with it: read-out: Activity.
In data set [24] the test system is A549. Briefly: Induction of apoptosis in human senescent A549 cells assessed as early apoptotic cells at 1 uM incubated for 24 hrs by FITC/PI staining based flow cytometry analysis (reference value: 0.68%). Format: functional.
Data set [25] deals with A549. Briefly: Induction of apoptosis in human senescent A549 cells assessed as late apoptotic cells at 1 uM incubated for 24 hrs by FITC/PI staining based flow cytometry analysis (reference value: 12.2%). Format: functional.
The test system of data set [26] is A549. Description: Induction of apoptosis in human senescent A549 cells assessed as necrotic cells at 1 uM incubated for 24 hrs by FITC/PI staining based flow cytometry analysis (reference value: 0.15%). Format: functional.
Data set [27] has as its system A549. Briefly: Antitumor activity against human A549 cells xenografted in SCID mouse assessed as tumor growth inhibition at 20 mg/kg, sc administered daily for 19 days. Format: functional. The note with it: A549, 456 h, time 19 day, read-out: TGI.
Data set [28] in a line: Toxicity in SCID mouse xenografted with human A549 cells change in body weight at 20 mg/kg, sc administered daily for 19 days. Format: organism-based. To be noted: in vivo, 456 h, time 19 day.
For data set [29], the system named is A549. Description: Antitumor activity against etoposide-induced human A549 cells xenografted in SCID mouse assessed as tumor growth inhibition at 20 mg/kg, sc administered daily for 19 days. To be noted: time 19.0 day. Format: functional, organism-based.
Data set [30] has as its system A549. Description: Antitumor activity against human A549 cells xenografted in SCID mouse assessed as reduction in BRD4 level in tumor at 20 mg/kg, sc administered daily for 19 days by IHC analysis. It counts as functional, organism-based. The note with it: time 19.0 day.
Data set [31] concerns A549. Briefly: Antitumor activity against human A549 cells xenografted in SCID mouse assessed as reduction in ki67 level in tumor at 20 mg/kg, sc administered daily for 19 days in presence of etoposide by IHC analysis. It counts as functional, organism-based. The note with it: time 19.0 day.
In data set [32] the test system is A549. Briefly: Antitumor activity against human A549 cells xenografted in SCID mouse assessed as increase in cleaved caspase-3 level in tumor at 20 mg/kg, sc administered daily for 19 days in presence of etoposide by IHC analysis. The note with it: time 19.0 day. It counts as functional, organism-based.
Data set [33] relates to A549. Briefly: Antitumor activity against human A549 cells xenografted in SCID mouse assessed as decrease in p21 level in tumor at 20 mg/kg, sc administered daily for 19 days in presence of etoposide by IHC analysis. It counts as functional, organism-based. To be noted: time 19.0 day.
Data set [34] relates to A549. Briefly: Downregulation of BRD4 expression in etoposide-induced human senescent A549 cells at 50 nM incubated for 16 hrs by Proteomic analysis. Format: functional, cell-based.
For data set [35], the system named is A549. Briefly: Effect on ARGAL level in etoposide-induced human senescent A549 cells at 50 nM incubated for 16 hrs by Proteomic analysis. It counts as functional, cell-based.
The subject of data set [36] is A549. Description: Effect on BTBD8 level in etoposide-induced human senescent A549 cells at 50 nM incubated for 16 hrs by Proteomic analysis. Format: functional, cell-based.
Data set [37] concerns the target T2, Bromodomain-containing protein 4. Briefly: Induction of BRD4 degradation in human normal (non-senescent) A549 cells at 50 to 100 nM by SA-beta-Gal staining assay. It counts as cell-based. The note with it: dose 50-100 nM.

Calls of active or inactive are those of the source. No cut-off for these calls is given here.

T1 sequence (P06748 whole entry partner): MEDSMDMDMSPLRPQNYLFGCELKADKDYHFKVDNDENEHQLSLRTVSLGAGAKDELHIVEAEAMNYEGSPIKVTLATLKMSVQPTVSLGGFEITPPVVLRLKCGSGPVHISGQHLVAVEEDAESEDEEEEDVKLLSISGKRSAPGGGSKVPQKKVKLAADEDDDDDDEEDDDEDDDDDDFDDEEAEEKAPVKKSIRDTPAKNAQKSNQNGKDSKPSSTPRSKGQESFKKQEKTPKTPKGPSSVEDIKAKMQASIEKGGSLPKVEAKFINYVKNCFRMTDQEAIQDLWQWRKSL
T1 sequence (Q9UM73 19-1620 limits assumed): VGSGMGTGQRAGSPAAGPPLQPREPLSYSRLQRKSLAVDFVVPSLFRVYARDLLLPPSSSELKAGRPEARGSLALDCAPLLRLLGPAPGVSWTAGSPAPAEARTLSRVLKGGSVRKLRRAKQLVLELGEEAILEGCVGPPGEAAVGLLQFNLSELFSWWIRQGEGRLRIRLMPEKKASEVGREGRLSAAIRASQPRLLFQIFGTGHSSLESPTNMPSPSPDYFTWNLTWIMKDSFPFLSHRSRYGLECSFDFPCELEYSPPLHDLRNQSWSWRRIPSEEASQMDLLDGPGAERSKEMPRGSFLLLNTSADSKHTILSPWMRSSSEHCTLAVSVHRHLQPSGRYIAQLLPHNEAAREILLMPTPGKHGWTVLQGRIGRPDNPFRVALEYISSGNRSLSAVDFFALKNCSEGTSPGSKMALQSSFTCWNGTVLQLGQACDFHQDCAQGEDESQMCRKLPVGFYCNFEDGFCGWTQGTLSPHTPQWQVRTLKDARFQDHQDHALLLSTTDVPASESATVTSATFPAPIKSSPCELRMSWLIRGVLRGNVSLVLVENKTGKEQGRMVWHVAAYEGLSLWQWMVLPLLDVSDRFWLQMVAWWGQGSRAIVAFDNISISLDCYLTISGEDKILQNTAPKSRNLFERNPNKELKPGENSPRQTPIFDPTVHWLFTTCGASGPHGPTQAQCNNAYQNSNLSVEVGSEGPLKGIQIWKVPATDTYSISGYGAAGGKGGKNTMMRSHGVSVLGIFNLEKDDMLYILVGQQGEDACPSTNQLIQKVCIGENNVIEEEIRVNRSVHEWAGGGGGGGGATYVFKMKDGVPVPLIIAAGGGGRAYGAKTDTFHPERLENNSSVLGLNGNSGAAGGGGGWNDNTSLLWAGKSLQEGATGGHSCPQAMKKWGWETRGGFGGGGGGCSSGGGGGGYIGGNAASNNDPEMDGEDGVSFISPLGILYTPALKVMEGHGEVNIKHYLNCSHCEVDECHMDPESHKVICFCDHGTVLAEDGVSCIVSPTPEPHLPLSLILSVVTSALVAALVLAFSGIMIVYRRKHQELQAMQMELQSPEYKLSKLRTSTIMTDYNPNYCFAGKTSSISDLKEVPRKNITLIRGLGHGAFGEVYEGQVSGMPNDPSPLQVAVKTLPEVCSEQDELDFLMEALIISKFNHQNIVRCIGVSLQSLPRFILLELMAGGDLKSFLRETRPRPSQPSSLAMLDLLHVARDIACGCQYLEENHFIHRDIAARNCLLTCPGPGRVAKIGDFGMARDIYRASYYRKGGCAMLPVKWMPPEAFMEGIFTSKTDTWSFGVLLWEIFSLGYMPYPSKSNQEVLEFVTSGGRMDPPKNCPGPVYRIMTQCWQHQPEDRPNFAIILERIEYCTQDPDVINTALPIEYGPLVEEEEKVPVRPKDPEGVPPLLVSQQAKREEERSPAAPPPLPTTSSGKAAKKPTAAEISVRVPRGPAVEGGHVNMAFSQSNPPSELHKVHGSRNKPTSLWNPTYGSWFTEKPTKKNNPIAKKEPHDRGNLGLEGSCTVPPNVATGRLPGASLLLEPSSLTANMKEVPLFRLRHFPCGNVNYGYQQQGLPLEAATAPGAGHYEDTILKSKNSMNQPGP

For `CC(=O)OC[C@H]1O[C@@H](Oc2ccc(COC(=O)O[C@@H]3C[C@@H](C(=O)N[C@@H](C)c4ccc(-c5scnc5C)cc4)N(C(=O)[C@@H](NC(=O)CCCC(=O)N4CCC(c5cc(OC(C)C)c(Nc6ncc(Cl)c(Nc7ccccc7S(=O)(=O)C(C)C)n6)cc5C)CC4)C(C)(C)C)C3)cc2)[C@H](OC(C)=O)[C@@H](OC(C)=O)[C@H]1OC(C)=O`, the result in data set [1] was inactive. Moreover, the outcome in [2] was Active. Moreover, the half-inhibitory concentration (IC50) was 2160 nM with KARPAS-299 [3] and 455 nM in the data set on KARPAS-299 [4]. Further, the “Ratio IC50” value with KARPAS-299 [5] turned out to be 4.75.
As to `CC(=O)OC[C@H]1O[C@@H](Oc2ccc(COC(=O)O[C@@H]3C[C@@H](C(=O)N[C@@H](C)c4ccc(-c5scnc5C)cc4)N(C(=O)[C@@H](NC(=O)COCCCOCCNC(=O)C[C@@H]4N=C(c5ccc(Cl)cc5)c5c(sc(C)c5C)-n5c(C)nnc54)C(C)(C)C)C3)cc2)[C@H](OC(C)=O)[C@@H](OC(C)=O)[C@H]1OC(C)=O`, the Stability result in data set [6] and in data set [7] was “Stable” each time. Moreover, the result in data set [8], in data set [9], in [11], in [12], in data set [13] and in [14] was Active. Besides, the outcome (in [15]; with A549 [30]; in the data set on A549 [31]; in the data set with A549 [32]; in the data set on A549 [33]; with A549 [34]) was Active. Besides, the result with A549 [35] and with A549 [36] was Active. The same molecule yielded a 50% degradation concentration (DC50) in data set [10] of 18.3 nM. For the same molecule, the half-maximal inhibitory concentration (IC50) is 3290 nM in the data set with A549 [16] and 354 nM with A549 [17]. In addition, in the data set with A549 [18], the “Ratio IC50” value came out at 5.17. In addition, the viability at 1 µM with A549 [19] came out at 86.5%; with A549 [23] it was 68.3%. The Activity with A549 [20] came to 8.07%; in the data set on A549 [21] it was 4.72%; in the data set on A549 [22] it was 0.68%; in the data set with A549 [24], 16.7%; with A549 [25] it was 14.8%; with A549 [26] it was 0.1%. Also, the Activity entry in data set [28] was “Non-Toxic”. Moreover, in the data set with A549 [27], the inhibition in vivo at 20 mg/kg stood at 80%. In addition, in the data set on A549 [29], the TGI entry was “Active”.
With `Cc1cc(Nc2ncc(Cl)c(Nc3ccccc3S(=O)(=O)C(C)C)n2)c(OC(C)C)cc1C1CCN(C(=O)CCCC(=O)N[C@H](C(=O)N2C[C@H](O)C[C@H]2C(=O)N[C@@H](C)c2ccc(-c3scnc3C)cc2)C(C)(C)C)CC1`, the outcome in [2] was Active. Moreover, the IC50 in the data set on KARPAS-299 [3] amounted to 369 nM; with KARPAS-299 [4], 232 nM. The “Ratio IC50” value in the data set with KARPAS-299 [5] was 1.59.
On to `Cc1ncsc1-c1ccc([C@H](C)NC(=O)[C@@H]2C[C@@H](O)CN2C(=O)[C@@H](NC(=O)COCCCOCCNC(=O)C[C@@H]2N=C(c3ccc(Cl)cc3)c3c(sc(C)c3C)-n3c(C)nnc32)C(C)(C)C)cc1`, for which the outcome in data set [8], in [37] and in [15] was Active. The IC50 is 640 nM in the data set with A549 [16] and 603 nM with A549 [17]. Moreover, the “Ratio IC50” value in the data set with A549 [18] is 0.59. In addition, the viability at 1 µM is 72.2% in the data set on A549 [19] and 68.7% in the data set on A549 [23]. Also, the Activity worked out at 20.1% in the data set on A549 [20]; 6.76% in the data set with A549 [21]; 0.98% in the data set on A549 [22]; 17% with A549 [24]; 14.2% in the data set on A549 [25]; 0.09% in the data set with A549 [26]. Besides, the Activity entry in data set [28] was “Non-Toxic”. In addition, the inhibition in vivo at 20 mg/kg in the data set with A549 [27] came out at 74%.
